A word on the Aqueous solubility: it is the dissolved amount per volume that the medium holds. By Solubility is commonly meant the concentration that dissolves in the medium under given conditions.

Structures are written as SMILES.

Data set [1] concerns splice-site mutation in PAX6 (PAX6^Sey-1Neu). As to the kind of experiment: Mouse model containing a splice-site mutation in PAX6 (PAX6^Sey-1Neu). It is filed as in vivo. The text has this: (§1) Additional successful results were achieved after topical administration of Compound 1 directly into the eye as an ophthalmic suspension formulation (0.9% sodium chloride, 1% Tween 80, 1% powdered Compound 1, 1% carboxymethylcellulose). The lens and retinal defects, observed in the untreated eyes, reversed in the Compound 1-treated mutant mice and closely resembled wild-type mice (FIG. 36B). […] Treatment with Compound 1 caused an increase in the PAX6 protein by 90% in the corneal and retinal epithelium protein lysates compared to wild-type mice (FIG. 36C) as measured by enzyme-linked immunosorbent assay (ELISA).

Data set [2] has as its system nonsense mutation in the mouse PAX6 gene. As to the kind of experiment: Nonsense mutation mouse model of aniridia (PAX6^Sey+/−). The class given is in vivo. As to the method:
Compound 1 was administered subcutaneously to PAX6 mutant and wild-type mice for 10 days (Postnatal Day 4-14) or administered topically as an ophthalmic suspension formulation (0.9% sodium chloride, 1% Tween 80, 1% powdered Compound 1, 1% carboxymethylcellulose), twice per day for 46 days (Postnatal Day 14-60). […] In the untreated mutant mouse group, progressive in-folding of the retina and abnormally small lenses was observed.
as §1
As a test for effects on visual acuity in the mice, the optokinetic tracking response was measured, which is a behavioural response mediated through the retina-brain circuitry.

The nature of data set [3]: Comparative equilibrium solubility study of micronized and non-micronized Compound 1. The class given is physicochemical. As to the method: Objective: The purpose of this study was to evaluate the solubility of micronized and non-micronized Compound 1. The solubility study was conducted in two representative media in pH 1 (0.1 N HCl with 0.5% sodium lauryl sulfate) and in pH 7.4 (0.1M phosphate buffered saline). The experiment further compared the initial rate of dissolution and equilibrium solubilities of micronized and non-micronized Compound 1 over a period of time.
Solubility measurement procedure comprised the steps of: 1) weighing and mixing approximately 100 mg of micronized Compound 1 and 100 mL of 0.1N HCl with 0.5% SLS into amber jar 1; 2) weighing and mixing approximately 100 mg of micronized Compound 1 and 100 mL of PBS into amber jar 2; 3) weighing and mixing approximately 100 mg of non-micronized Compound 1 and 100 mL of 0.1N HCl with 0.5% SLS into amber jar 3; 4) weighing and mixing approximately 100 mg of non-micronized Compound 1 and 100 mL of PBS into amber jar 4; 5) mixing all samples in their respective amber jars using a multi purpose rotator for 2 hours; 4) sampling at 5 minutes, 10 minutes, 30 minutes, 60 minutes, 90 minutes, 120 minutes; 5) filtering the samples and 6) analyzing the filtrates using HPLC. For each time point, 10 mL of sample was drawn using a 10 mL syringe with a needle attached filter and using a syringe-top 0.45 μm PTFE syringe filter. The first 9 mL of the samples collected were put back into the original amber jar and then remaining 1 mL was transferred to HPLC vial for analysis.

Data set [4] is described as follows: Dynamic Vapor Sorption (DVS) / hygroscopicity. To be noted: for DVS behaviour (figure legend): FIG. 17-21; for DVS result: Table 4; for Hygroscopicity (class): classified according to the European Pharmacopoeia; for DVS water uptake: from 80% to 95% r.h. (equilibrium reached); for Hygroscopicity (mass change): mass change in the range 0→85% r.h.; for DVS mass remaining higher than the original mass: upon lowering the relative humidity again (to 50% r.h.). It is filed as physicochemical. As to the method:
DVS measurements (50%→0%→95%→50% r.h.) were performed on the samples of potassium salt 1, sodium salt 1, tromethamine salt 1, L-lysine salt and magnesium salt 2.

Data set [5] is described as follows: Aqueous solubility determination of salts. The class given is physicochemical. To be noted: for pH (aqueous solubility): pH at aqueous solubility; for pH / Solubility: Table 10; for pH: pH of the filtrate; for Solubility: 500 rpm, free acid by HPLC. As to the method:
Each salt was suspended in water and shaken for 24 h at 25° C. and 500 rpm. The resulting suspensions were filtered (0.1 μm filter). The obtained solid residues were analyzed by FT-Raman. The pH of the filtrate was measured, and the concentration of the free acid was determined by HPLC.

The nature of data set [6]: Crystallinity estimated from PXRD. It is filed as physicochemical. On the set-up: key: +++ = high; ++ = good; + low.
Where [7] appears, read: subcutaneous, 10 days (Postnatal Day 4-14), PAX6 mutant mice.
[8] abbreviates: topical 1% ophthalmic suspension.

For `O=C(O)c1cccc(-c2noc(-c3ccccc3F)n2)c1` [Compound 1, 3-[5-(2-fluoro-phenyl)-[1,2,4]oxadiazol-3-yl]-benzoic acid], in data set [1], the Response to therapy entry is “did not show a response”. Further, the “Optokinetic tracking response (visual acuity)” value in data set [2] (spatial frequency threshold, treated mutant mice) is listed as “significant improvement in the spatial frequency threshold”. For the same compound, in data set [2] (setting [7]), the “Increase of the size of the lens” value turned out to be 70% and the Retinal in-folding entry is given as “corrected the retinal in-folding”. For the same compound, the “Disease progression and malformation” value in data set [2] (summary for the aniridia model) was “inhibited disease progression and reversed malformation in the cornea, lens and retina”. Besides, in data set [2] (setting [8]), the “Histological examination of the cornea” value is listed as “decreased corneal thickening” and the “Retina response to light stimulation” value is “increased response to light stimulation”. For the same compound, the “Lens and retinal defects” value in data set [2] (topical 1% ophthalmic suspension, twice per day, Postnatal Day 14-60) is “reversed”. The “Increase in the PAX6 protein” value in data set [2] (topical 1% ophthalmic suspension, corneal and retinal epithelium protein lysates, ELISA) is 90%. In addition, in data set [3] (pH 1 media), the “Time at which solubility equilibrium was reached” value is given as “approximately 30 minutes”. In addition, the “Time at which equilibrium solubility was reached” value in data set [3] (pH 7.4 media) is given as “approximately 2 hours”.

`O=C([O-])c1cccc(-c2noc(-c3ccccc3F)n2)c1.[K+]` [Potassium salt 1]: in data set [4], the “DVS behaviour (figure legend)” value is given as “small irreversible water uptake”; the DVS result was “H not detected; DVS: hygroscopic sample, hydrate formation; (increase of the mass is less than 15% and equal or greater than 2%)”; the “Hygroscopicity (class)” value was “(hygroscopic) (increase of the mass is less than 15% and equal or greater than 2%)”; the DVS water uptake entry was “roughly 3 wt. %”. Besides, in data set [4], the “Hygroscopicity (mass change)” value is reported as “+7.81 wt %” and the “DVS mass remaining higher than the original mass” value is listed as roughly 1 wt. %. Also, the DVS mass loss in data set [4] (humidity decreased to 0% r.h. (equilibrium not reached)) is roughly 6 wt. %. Moreover, the “DVS water uptake (mass change)” value in data set [4] (humidity further increased to 80% r.h.) is roughly 1.5 wt. %. Besides, in data set [5] (Table 2, water, 24 h, 25° C.), the Aqueous solubility is given as 57 mg/mL. Further, in data set [5] (Table 4), the Aqueous solubility was 57.00 mg/mL and the “pH (aqueous solubility)” value came to 9.2. The pH in data set [5] worked out at 9.2. Further, the Solubility in data set [5] (water, 24 h, 25° C.) was found to be 57 mg/mL. In data set [6], the Crystallinity result is on record as “+”.

On to `O=C([O-])c1cccc(-c2noc(-c3ccccc3F)n2)c1.[Na+]` [Sodium salt 1], for which, in data set [4] (50% to 0% r.h. and again to 50% r.h.), the “DVS reversible mass change” value is on record as 2 wt. %. Moreover, in data set [4], the “DVS behaviour (figure legend)” value is reported as “stepwise irreversible water uptake”; the DVS result was “acidic H not detected; DVS: hygroscopic sample, hydrate (increase of the mass is less than 15% and equal or greater than 2%)”; the “Hygroscopicity (class)” value is “(very hygroscopic) (increase of the mass ≥15%)”; the “Hygroscopicity (mass change)” value was “+19.52 wt %”. For the same compound, in data set [4], the “DVS mass remaining higher than the original mass” value is given as roughly 16 wt. %. Also, the “DVS water uptake in one step” value in data set [4] (from 50% to 62% r.h.) is recorded as “Approximately 10 wt. %”. Moreover, the “DVS further water uptake, second step” value in data set [4] (humidity increased to 80% r.h. (equilibrium not reached)) is roughly 6 wt. %. In addition, in data set [4] (humidity increased to 95% r.h.), the “DVS water uptake up to 95% r.h.” value turned out to be 20 wt. %. Besides, the Aqueous solubility in data set [5] (Table 2, water, 24 h, 25° C.) stood at 22 mg/mL. For the same compound, in data set [5] (Table 4), the Aqueous solubility was 22.22 mg/mL and the “pH (aqueous solubility)” value turned out to be 8.3. Besides, in data set [5], the pH is recorded as 8.3. In data set [5] (water, 24 h, 25° C.), the Solubility is 22 mg/mL. Further, the Crystallinity entry in data set [6] is on record as “++”.

Consider `NC(CO)(CO)CO.O=C(O)c1cccc(-c2noc(-c3ccccc3F)n2)c1` [Tromethamine salt 1], for which, in data set [4], the “DVS behaviour (figure legend)” value is listed as “large reversible water uptake with hysteresis”; the DVS result is “hygroscopic sample; Aqueous solubility (increase of the mass is less than 15% and equal or greater than 2%)”; the “Hygroscopicity (class)” value was “(hygroscopic) (increase of the mass is less than 15% and equal or greater than 2%)”; the DVS water uptake is roughly 25 wt. %. Also, the “Hygroscopicity (mass change)” value in data set [4] is given as “+3.59 wt %”. In data set [4] (below 70% r.h. on the way down), the “DVS weight loss to a value lower than the original mass” value is given as 3 wt. %. In addition, the “DVS mass change” value in data set [4] (humidity decreased to 0% r.h. and then raised to 80% r.h.) is “no significant mass change”. In addition, in data set [4] (whole DVS cycle), the “DVS overall weight loss” value amounted to 3%. Besides, the Aqueous solubility in data set [5] (Table 2, water, 24 h, 25° C.) is on record as 18 mg/mL. Moreover, the pH in data set [5] came to 8.1. In addition, the Solubility in data set [5] (water, 24 h, 25° C.) is given as 18 mg/mL. The Crystallinity entry in data set [6] is recorded as “+++”.

These data come from US10233161B2, “Pharmaceutical compositions and salts of a 1,2,4-oxadiazole benzoic acid” (PTC Therapeutics, Inc., priority 2014, dated 2019).
